According to patent US11751567B2, “Steroidal piperidone derivative, synthesis method, and use thereof” (NORTHWEST A&F UNIVERSITY, priority 2021, dated 2023):
Converted amounts (≈) assume the structure as drawn.

Tests used:
Type in all cases: in vivo
Aphis citricola = assay: slide-dip mortality and LC50 test on aphids (Aphis citricola)
Experimental: (§1) Inhibitory activities of the steroidal piperidone derivatives listed in Tables 1 and 2 against Myzus persicae, Aphis citricola, Brevicoryne brassicae, and wheat aphids were determined through slide-dip method. Specific process: A specified amount of a compound to be tested was accurately weighed and dissolved with acetone as a solvent, and solutions with concentrations of 50 μg/mL and 75 μg/mL were each prepared with a 0.1% Tween-80 aqueous solution, allowed to stand at room temperature for 0.5 h until the sample was completely dissolved, and stored for later use. Then, adult aphids were fixed with double-sided tape on slides with a small brush. One end of the slide with the aphids was immersed in the test solutions for 5 seconds. The excess liquid was absorbed with absorbent paper, and the mortality rates were calculated 24 h after treatment. Acetamiprid was adopted as a positive control, and a 0.1% Tween-80 aqueous solution was adopted as a negative control. and the results are shown in Table 1.

Tetranychus truncatus = assay: slide dipping mortality test on mites; details: slide dipping, process as for aphids, read-out: Corrected mortality (%) Tetranychus truncatus
Experimental: as §1
The inhibitory activities of the steroidal piperidone derivatives listed in Table 3 on Tetranychus truncatus were tested through slide dipping.

rice planthoppers = assay: foliar spray test against rice planthoppers; details: 72 h, read-out: Corrected mortality (%) rice planthoppers
Experimental: (§2) The toxic activities of the steroidal piperidone derivatives listed in Table 4 against B. tabaci were tested by a foliar spray method. Specific process: A specified amount of a compound to be tested was accurately weighed and dissolved in acetone, and solutions with concentrations of 50 μg/mL and 75 μg/mL were each prepared with a 0.1% of Tween 80 aqueous solution and stored for later use. The pesticide solution was sprayed on the back side of a cucumber leaf, the cucumber leaf was naturally dried, and B. tabaci to be tested were placed on the cucumber leaf. Thiamethoxam was used as a positive control, and acetone was used as a negative control. Several deaths were observed after 7 d of treatment, and the corrected mortality was calculated.
The toxic activities of the steroidal piperidone derivatives listed in Table 5 against rice planthoppers were tested by a foliar spray method. Imidacloprid was used as a positive control, and acetone was used as a negative control. Several deaths were observed after 3 d of treatment, and the corrected mortality was calculated.

Myzus persicae = assay: slide-dip mortality test on aphids (Myzus persicae); details: 24 h, read-out: Corrected mortality (%) Myzus persicae
Experimental: as §1

wheat aphids = assay: slide-dip mortality test on aphids (wheat aphids); details: 24 h, read-out: Corrected mortality (%) Wheat aphid
Experimental: as §1

Bemisia tabaci = assay: foliar spray test on cucumber leaf against B. tabaci; details: 168 h, read-out: Corrected mortality (%) B. tabaci
Experimental: as §2

Brevicoryne brassicae = assay: slide-dip mortality test on aphids (Brevicoryne brassicae); details: 24 h, read-out: Corrected mortality (%) Brevicoryne brassicae
Experimental: as §1

[1] = 24 h, read-out: Corrected mortality (%) Aphis citricola

C[C@]12CC[C@H](O)CC1CC[C@@H]1[C@@H]2CC[C@@]2(C)[C@H]1CCC(=O)N2C(=O)c1ccc(F)cc1 (stereo partly drawn) [Compound (1)-3]
mortality at 50 µg/mL (Aphis citricola; [1]): 66.3% | mortality at 75 µg/mL (Aphis citricola; [1]): 85.2% | LC50 (Aphis citricola; read-out: LC50 of inhibitory activity against Aphis citricola): 24.6 µg/mL (≈ 57.5 µM) | mortality at 50 µg/mL (Tetranychus truncatus; 50 μg/mL): 54.3% | mortality at 75 µg/mL (Tetranychus truncatus; 75 μg/mL): 70.3% | mortality at 50 µg/mL (rice planthoppers): 63.3% | mortality at 75 µg/mL (rice planthoppers): 71.2% | mortality at 50 µg/mL (Myzus persicae): 69.3% | mortality at 75 µg/mL (Myzus persicae): 89.9% | mortality at 50 µg/mL (wheat aphids): 70.5% | mortality at 75 µg/mL (wheat aphids): 90% | mortality at 50 µg/mL (Bemisia tabaci): 67.7% | mortality at 75 µg/mL (Bemisia tabaci): 74.7% | mortality at 50 µg/mL (Brevicoryne brassicae): 64% | mortality at 75 µg/mL (Brevicoryne brassicae): 82.8%
